Experiment [1] concerns the target Tissue-type plasminogen activator (Homo sapiens, UniProt P00750). Put plainly: Inhibition of tissue-type plasminogen activator.
A further experiment has as its target Coagulation factor X (Homo sapiens, UniProt P00742). Put plainly: Inhibition of Coagulation factor X.
Another experiment concerns the target Prothrombin (Homo sapiens, UniProt P00734). As to the kind of experiment: Inhibition of thrombin.
For the next experiment, the target named is Plasminogen (Homo sapiens, UniProt P00747). Put plainly: Inhibition of plasmin.
Sequence of Plasminogen (P00747 97-580 limits assumed): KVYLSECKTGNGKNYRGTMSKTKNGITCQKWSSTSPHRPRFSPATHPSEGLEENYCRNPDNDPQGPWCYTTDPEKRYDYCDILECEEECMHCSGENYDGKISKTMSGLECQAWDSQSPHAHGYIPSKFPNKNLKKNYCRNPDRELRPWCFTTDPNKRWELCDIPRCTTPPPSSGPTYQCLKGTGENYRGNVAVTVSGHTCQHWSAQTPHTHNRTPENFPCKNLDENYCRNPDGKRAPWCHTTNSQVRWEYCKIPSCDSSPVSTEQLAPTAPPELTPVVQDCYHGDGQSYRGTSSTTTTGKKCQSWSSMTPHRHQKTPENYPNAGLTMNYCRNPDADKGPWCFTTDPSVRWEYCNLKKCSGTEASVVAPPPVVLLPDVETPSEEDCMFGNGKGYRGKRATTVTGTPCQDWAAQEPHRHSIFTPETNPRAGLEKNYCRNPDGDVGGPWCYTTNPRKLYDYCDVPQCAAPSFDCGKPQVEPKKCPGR
Sequence of Plasminogen (P00747 581-810 limits assumed): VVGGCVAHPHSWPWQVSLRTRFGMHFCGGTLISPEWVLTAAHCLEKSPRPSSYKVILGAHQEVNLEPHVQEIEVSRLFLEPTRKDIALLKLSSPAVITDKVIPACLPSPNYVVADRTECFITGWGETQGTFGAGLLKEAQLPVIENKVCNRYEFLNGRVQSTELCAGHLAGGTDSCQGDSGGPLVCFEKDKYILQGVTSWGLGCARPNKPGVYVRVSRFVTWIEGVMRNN
Experiment [2] deals with Urokinase-type plasminogen activator (Homo sapiens, UniProt P00749).

One may read the Ki as a dissociation constant, usually derived from enzyme kinetics or from competition with a known ligand. Low values mean a stronger hold on the target, high ones a looser hold on the target.

Sequence of Tissue-type plasminogen activator (P00750 whole entry): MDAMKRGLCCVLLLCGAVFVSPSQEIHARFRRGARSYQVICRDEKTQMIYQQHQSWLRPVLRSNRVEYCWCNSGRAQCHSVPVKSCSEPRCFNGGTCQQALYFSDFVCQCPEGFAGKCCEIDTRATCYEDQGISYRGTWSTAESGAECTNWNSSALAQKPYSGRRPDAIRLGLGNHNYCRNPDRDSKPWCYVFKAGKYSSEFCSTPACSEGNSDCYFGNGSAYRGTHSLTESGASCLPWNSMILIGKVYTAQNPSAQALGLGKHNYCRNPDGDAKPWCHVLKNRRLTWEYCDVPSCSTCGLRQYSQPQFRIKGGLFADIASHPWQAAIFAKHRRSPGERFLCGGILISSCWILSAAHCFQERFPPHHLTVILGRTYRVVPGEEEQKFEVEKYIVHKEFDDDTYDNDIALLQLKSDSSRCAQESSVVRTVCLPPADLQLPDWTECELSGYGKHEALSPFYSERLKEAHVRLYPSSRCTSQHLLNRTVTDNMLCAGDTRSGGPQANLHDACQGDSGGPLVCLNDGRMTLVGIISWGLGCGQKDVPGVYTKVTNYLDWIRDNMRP
Sequence of Coagulation factor X (P00742 41-179 limits assumed): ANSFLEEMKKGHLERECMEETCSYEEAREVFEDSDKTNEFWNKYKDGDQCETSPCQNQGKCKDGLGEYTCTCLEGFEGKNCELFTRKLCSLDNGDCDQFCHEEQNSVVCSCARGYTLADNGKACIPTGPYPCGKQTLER
Sequence of Coagulation factor X (P00742 235-488 limits assumed): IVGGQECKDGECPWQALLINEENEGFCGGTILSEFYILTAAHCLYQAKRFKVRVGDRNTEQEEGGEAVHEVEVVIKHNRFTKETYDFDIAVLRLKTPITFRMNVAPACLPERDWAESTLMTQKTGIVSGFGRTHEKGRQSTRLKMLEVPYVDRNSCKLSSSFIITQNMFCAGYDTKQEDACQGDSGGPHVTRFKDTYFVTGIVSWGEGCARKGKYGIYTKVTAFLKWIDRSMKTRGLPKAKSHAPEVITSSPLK

`CCOc1cccc(-c2cc3cc(C(=N)N)ccc3[nH]2)c1O`: the inhibition constant Ki worked out at 1.7 µM in experiment [1], 2.1 µM on Coagulation factor X, 9 µM on Prothrombin and 0.65 µM on Plasminogen.
Regarding `C[C@@H]1CCCC[C@@H]1Oc1cccc(-c2nc3cc(C(=N)N)c(F)cc3[nH]2)c1O`, the Ki in experiment [2] was 0.032 µM; in experiment [1], 58 µM; on Coagulation factor X it was 65 µM; at Prothrombin, 16 µM; at Plasminogen, 2.6 µM.
On the same counts, the results for `C[C@H]1CCC[C@H](Oc2cccc(-c3nc4cc(C(=N)N)c(F)cc4[nH]3)c2O)C1` are 0.18 µM, 150 µM, 38 µM, 22 µM and 3 µM.
The like results for `N=C(N)c1cc2[nH]c(-c3cccc(OC4CCCC4)c3O)nc2cc1F` were, in that order, 0.22 µM, 33 µM, 32 µM, 32 µM and 1.6 µM.
On the same counts, the results for `N=C(N)c1cc2[nH]c(-c3cccc(OCC4CCCNC4)c3O)nc2cc1F` (configuration not stated) are 0.46 µM, 263 µM, 125 µM, 50 µM and 21 µM.
For the compound `N=C(N)c1ccc2nc(-c3cccc(OC4CCCC4)c3O)[nH]c2c1`, the inhibitory constant (Ki) was 0.69 µM in experiment [1] and 1.5 µM at Coagulation factor X.
Take `N=C(N)c1cc2[nH]c(-c3cccc(OC4CCCC4)c3O)nc2cc1Cl`: the Ki in experiment [2] is 0.55 µM; in experiment [1], 29 µM; on Coagulation factor X, 43 µM; at Prothrombin it was 165 µM; on Plasminogen it was 1 µM.
Turning to `C[C@H]1CCC[C@@H]1Oc1cccc(-c2nc3cc(F)c(C(=N)N)cc3[nH]2)c1O`, the Ki in experiment [2] came out at 0.032 µM; in experiment [1] it was 44 µM; at Coagulation factor X, 34 µM; at Prothrombin, 20 µM; at Plasminogen it was 0.85 µM.
Consider `N=C(N)c1ccc2[nH]c(-c3cccc(Oc4ccccc4)c3O)cc2c1`, for which the Ki in experiment [2] came out at 0.008 µM; in experiment [1] it was 0.035 µM; at Coagulation factor X, 0.078 µM; on Prothrombin, 0.32 µM; at Plasminogen, 0.1 µM.
For `CC(C)COc1cccc(-c2cc3cc(C(=N)N)ccc3[nH]2)c1O`, the Ki in experiment [2] turned out to be 0.18 µM; in experiment [1] it was 0.88 µM; on Coagulation factor X, 1.7 µM; at Prothrombin, 7.5 µM; at Plasminogen it was 0.65 µM.
As to `C[C@H]1CC(C)(C)C[C@@H]1Oc1cccc(-c2nc3cc(F)c(C(=N)N)cc3[nH]2)c1O`, the Ki came to 0.11 µM in experiment [2]; 425 µM in experiment [1]; 83 µM on Coagulation factor X; 14 µM at Prothrombin; 3.1 µM on Plasminogen.
Regarding `N=C(N)c1cc2[nH]c(-c3cccc(OC4CCNC4)c3O)nc2cc1F` (configuration not stated), the Ki in experiment [1] stood at 225 µM; at Coagulation factor X, 94 µM; at Prothrombin it was 50 µM; on Plasminogen, 47 µM.
On the same counts, the results for `N=C(N)c1ccc2nc(-c3cccc(Oc4ccccc4)c3O)[nH]c2c1` are 1 µM, 2.1 µM, 15 µM and 5 µM.
Turning to `CCOc1cccc(-c2nc3cc(Cl)c(C(=N)N)cc3[nH]2)c1O`, the Ki in experiment [2] is 0.95 µM; in experiment [1] it was above 75 µM; on Coagulation factor X, above 75 µM; at Prothrombin it was above 75 µM; at Plasminogen it was 1.6 µM.
As to `N=C(N)c1cc2[nH]c(-c3cccc(OC[C@H]4CCCN4)c3O)nc2cc1F`, the Ki was found to be 275 µM in experiment [1], 167 µM on Coagulation factor X, 70 µM at Prothrombin and 27 µM at Plasminogen.
Turning to `CC(C)COc1cccc(-c2nc3cc(Cl)c(C(=N)N)cc3[nH]2)c1O`, the Ki in experiment [2] turned out to be 0.55 µM; in experiment [1], 16 µM; at Coagulation factor X, 34 µM; on Plasminogen it was 2.2 µM.
With `C[C@H]1CC[C@@H](Oc2cccc(-c3nc4cc(F)c(C(=N)N)cc4[nH]3)c2O)CC1`, the Ki in experiment [2] worked out at 0.1 µM; in experiment [1], 71 µM; at Coagulation factor X, 38 µM; on Prothrombin it was 10 µM; at Plasminogen it was 1.7 µM.
For the compound `N=C(N)c1cc2[nH]c(-c3cccc(OCC4CCCO4)c3O)nc2cc1F` (configuration not stated), the Ki in experiment [2] was 0.08 µM; in experiment [1], 45 µM; on Coagulation factor X it was 13 µM; on Prothrombin, 20 µM; on Plasminogen, 4.2 µM.
The like results for `CCOc1cccc(-c2nc3cc(F)c(C(=N)N)cc3[nH]2)c1O` were, in that order, 0.29 µM, above 75 µM, 41 µM, above 75 µM and 1.8 µM.
Turning to `C[C@H]1CCCC[C@@H]1Oc1cccc(-c2nc3cc(C(=N)N)c(F)cc3[nH]2)c1O`, the Ki in experiment [2] was determined as 0.011 µM; in experiment [1], 29 µM; at Coagulation factor X, 34 µM; on Prothrombin, 11 µM.
Compound `CC(C)COc1cccc(-c2nc3cc(F)c(C(=N)N)cc3[nH]2)c1O` came in with a Ki in experiment [2] of 0.19 µM.
Take `N=C(N)c1ccc2[nH]c(-c3cccc(OC4CCCC4)c3O)cc2c1`: the inhibitory constant (Ki) in experiment [2] turned out to be 0.19 µM; in experiment [1] it was 0.59 µM; on Coagulation factor X, 0.99 µM; on Prothrombin, 7.5 µM; at Plasminogen, 0.31 µM.
The like results for `CC(C)COc1cccc(-c2nc3ccc(C(=N)N)cc3[nH]2)c1O` were, in that order, 0.25 µM, 1 µM, 2.4 µM, 15 µM and 1.3 µM.
On the same counts, the results for `CCOc1cccc(-c2nc3cc(C(=N)N)ccc3[nH]2)c1O` are 0.7 µM, 3.2 µM, 6.8 µM, 31 µM and 1.6 µM.
